# Source: patent publication US20230131339A1, “EPI-X4 BASED PEPTIDES AND DERIVATIVES THEREOF” (Universitaet Ulm, priority 2020, published 2023)
# Where a SMILES comes first, the peptide text is derived from it. Where no end group is shown, it is not given here. Side-chain parts run from the residue outwards. [ ]: non-standard residue; d: D form. The star is where a group is joined. Palmitoyl = CCCCCCCCCCCCCCCC(=O)*; Glu = glutamate linker
# T1: CXC chemokine receptor type 4 (CXCR4) (human, UniProt P61073 1-352)
# T1 chain: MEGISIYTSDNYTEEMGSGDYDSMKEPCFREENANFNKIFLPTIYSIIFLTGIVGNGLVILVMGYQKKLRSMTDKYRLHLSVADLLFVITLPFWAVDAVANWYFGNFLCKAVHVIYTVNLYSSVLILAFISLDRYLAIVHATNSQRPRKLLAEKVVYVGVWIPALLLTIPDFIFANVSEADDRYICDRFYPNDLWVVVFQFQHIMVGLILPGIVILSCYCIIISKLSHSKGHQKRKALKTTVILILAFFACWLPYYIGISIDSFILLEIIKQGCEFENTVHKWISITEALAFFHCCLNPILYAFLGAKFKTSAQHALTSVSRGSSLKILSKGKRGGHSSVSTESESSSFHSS
# B1: JM#178 (peptide)
# peptide: [dL]MRWSRK(Palmitoyl)MP-NH2
# modifications: N-terminus assumed
# SMILES: CCCCCCCCCCCCCCCC(=O)NCCCC[C@H](NC(=O)[C@H](CCCNC(=N)N)NC(=O)[C@H](CO)NC(=O)[C@H](Cc1c[nH]c2ccccc12)NC(=O)[C@H](CCCNC(=N)N)NC(=O)[C@H](CCSC)NC(=O)[C@H](N)CC(C)C)C(=O)N[C@@H](CCSC)C(=O)N1CCC[C@H]1C(N)=O
# B2: JM#167 (peptide)
# peptide: IVRWSKK(Palmitoyl)VP-NH2
# modifications: N-terminus assumed
# SMILES: CCCCCCCCCCCCCCCC(=O)NCCCC[C@H](NC(=O)[C@H](CCCCN)NC(=O)[C@H](CO)NC(=O)[C@H](Cc1c[nH]c2ccccc12)NC(=O)[C@H](CCCNC(=N)N)NC(=O)[C@@H](NC(=O)[C@@H](N)[C@@H](C)CC)C(C)C)C(=O)N[C@H](C(=O)N1CCC[C@H]1C(N)=O)C(C)C
# What was measured:
# [1] = test system: CXCL12-induced ERK signaling; assay: ERK/AKT signaling assay in SupT1 cells: ERK phosphorylation; assay type: cell-based
# Protocol: (§1) Third, the activity of the claimed EPI-X4 derivatives was tested by the effect on CXCL12/CXCR4-mediated ERK (Extracellular-signal Regulated Kinases) and AKT (a serine/threonine-protein kinase) signaling (FIG. 3). In that assay CXCR4 expressing cells are stimulated with the CXCR4 chemokine-ligand CXCL12, which subsequently leads to phosphorylation of ERK and AKT. Preincubation of cells with CXCR4-antagonists blocks those pathways. […] Two or three independent experiments were carried out in triplicates for each peptide in each assay. The error bars refer to the standard deviation.
# (§2) ERK/AKT signaling assay. CXCL12 induced ERK and AKT phosphorylation was determined in SupT1 cells. For this, 100,000 cells were seeded per well in a 96-V well plate in 100 μl medium supplemented with 1% FCS. Cells were incubated for 2 hours at 37° C. before 5 μl of compounds were added. After 15 min incubation at 37° C. cells were stimulated by adding 5 μl CXCL12 diluted in PBS to reach a final concentration of 100 ng/ml. Cells were further incubated for 2 min before the reaction was stopped by adding 20 μl of 10% PFA. Cells were fixed for 15 min at 4° C. before PFA was removed and cells permeabilized by adding 100 μl ice cold methanol. After 15 min at 4° C. the methanol was removed, cells were washed and 30 μl primary antibody was added (phospho-p44/42 MAPK (Erk1) (Tyr204)/(Erk2) (Tyr187) (D1H6G) mouse mAb #5726; phosphor-Akt (Ser473) (193H12) rabbit mAb #4058 Cell Signaling) for 1 hour at 4° C. After the antibody was removed and cells were washed secondary antibody was added for 30 min. Cells were washed afterwards and subsequently analyzed by flow cytometry.
# [2] = test system: CXCL12-induced AKT signaling; assay: ERK/AKT signaling assay in SupT1 cells: AKT phosphorylation; assay type: cell-based
# Protocol: as §1, §2
# [3] = test system: CXCR4-tropic X4-HIV-1 (NL4-3); assay type: cell-based
# Protocol: The activity of the peptides was estimated by different assays.
# The X4-HIV inhibition assay is designed to measure the activity of the inventive peptides by their efficiency of blocking the infection of tissue culture cells by CXCR4-tropic HIV-1 variants.
# HIV-1 inhibition assay. […] For infection of TZM-bl cells in presence of inhibitors, cells were seeded at a density of 1×10^5 cells/ml in 70 μl DMEM containing 2.5% FCS. Compounds were diluted in PBS and 10 μl were added. After 15 minutes of incubation cells were inoculated with 20 μl of diluted virus. Infection rates were determined three days later using Gal-Screen system (Applied Biosystems).
# [4] = mice, i.v. tail vein
# Protocol: Peptides were injected into the tail vein of mice. 4 hours post injection, mice were sacrificed and blood taken by heart punctation. Plasma was obtained by centrifugation and tested for remaining activity in antibody competition assay. As control, peptide was spiked into native plasma (ex vivo). IC50 values were determined by non-linear regression assuming 1.8 ml in vivo blood volume. Remaining activity was determined by IC50 (ex vivo)/IC50 (in vivo)×100. The tested peptides included JM #143 (SEQ ID NO.: 54), JM #144 (SEQ ID NO.: 55), JM #192 (SEQ ID NO.: 89), JM #180 (SEQ ID NO.: 77), JM #194 (SEQ ID NO.: 91), JM #235 (SEQ ID NO.: 130), JM #198 (SEQ ID NO.: 95), JM #255 (SEQ ID NO.: 150), JM #257 (SEQ ID NO.: 152) and JM #204 (SEQ ID NO.: 99). […] Shown are data from 2 individual mice measured in duplicates.
# In vivo stability assay. 100 μl of a 700 μg/ml stock solution of the peptide in 0.9% NaCl was intravenously injected in the tail vein of C57BL/6NCrl (BL6) mice. 4 hours post injection, mice were killed by cervical dislocation. Mouse plasma was obtained by heart punctation. Blood was 19:1 diluted with 0.16 M NaEDTA and centrifuged at 2000×g for 20 min at 4° C. to obtain plasma. Plasma was stored at −80° C. till remaining peptide activity in the plasma was determined by 12G5 antibody competition assay.
# [5] = molecular target: T2, CXC chemokine receptor type 4 (CXCR4) (human, UniProt P61073 1-352); assay: cell-based or functional assay
# [6] = molecular target: T2, CXC chemokine receptor type 4 (CXCR4); assay: 12G5-APC antibody competition on SupT1 cells, flow cytometry
# Protocol: To the right of the diagrams, an assignment of the curves to the tested peptides is explained. […] Three independent experiments were carried out for each peptide in each assay. The error bars refer to the standard deviation.
# Antibody competition assay. Competition of compounds with antibody binding was performed on SupT1 cells. For that cells were washed in PBS containing 1% FCS and 50,000 cells were then seeded per well in a 96 V-well plate. Buffer was removed and plates were precooled at 4° C. […] The antibody was used at a concentration closed to its determined Kd. 15 μl compounds were then added to the cells and 15 μl antibody immediately afterwards. Plates were incubated at 4° C. in the dark for 2 hours. Afterwards cells were washed twice with PBS containing 1% FCS and fixed with 2% PFA. Antibody binding was analyzed by flow cytometry (FACS CytoFLEX; Beckman Coulter®).
# [7] = molecular target: T1, CXC chemokine receptor type 4 (CXCR4); assay: competition
molecule,measurement,setting,value
"CCCCCCCCCCCCCCCC(=O)NCCCC[C@H](NC(=O)[C@H](CCCCN)NC(=O)[C@H](CO)NC(=O)[C@H](Cc1c[nH]c2ccccc12)NC(=O)[C@H](CCCNC(=N)N)NC(=O)[C@@H](NC(=O)[C@@H](N)[C@@H](C)CC)C(C)C)C(=O)N[C@H](C(=O)N1CCC[C@H]1C(=O)N[C@@H](CS)C(=O)N[C@H](C(=O)N[C@@H](CO)C(=O)O)C(C)C)C(C)C [JM #169, IVRWSKK(Pal)VPCVS] (H-IVRWSKK(Palmitoyl)VPCVS-OH; C-terminus assumed)",reduction of CXCL12-induced ERK signaling,[1]; 0.1 μM,over 70%
same,reduction of CXCL12-induced ERK signaling,[1]; 1 μM,almost completely blocked
same,reduction of CXCL12-induced AKT signaling,[2]; 0.1 μM,85%
same,reduction of CXCL12-induced AKT signaling,[2]; 1 μM,completely
CC[C@H](C)[C@H](N)C(=O)N[C@@H](CC(C)C)C(=O)N[C@@H](CCCNC(=N)N)C(=O)N[C@@H](Cc1c[nH]c2ccccc12)C(=O)N[C@@H](CO)C(=O)N[C@@H](CCCNC(=N)N)C(=O)N[C@@H](CCCCN)C(=O)N[C@@H](CCSC)C(=O)N1CCC[C@H]1C(=O)N[C@@H](CS)C(=O)N[C@@H](CC(C)C)C(=O)N[C@@H](CO)C(=O)O [JM #18] (H-ILRWSRKMPCLS-OH; C-terminus assumed),reduction of CXCL12-induced ERK signaling,[1]; 0.1 μM,about 40%
same,reduction of CXCL12-induced ERK signaling,[1]; 1 μM,~70%
same,reduction of CXCL12-induced AKT signaling,[2]; 0.1 μM,about 40%
same,reduction of CXCL12-induced AKT signaling,[2]; 1 μM,~70%
"CCCCCCCCCCCCCCCC(=O)NCCCC[C@H](NC(=O)[C@H](CCCNC(=N)N)NC(=O)[C@H](CO)NC(=O)[C@H](Cc1c[nH]c2ccccc12)NC(=O)[C@H](CCCNC(=N)N)NC(=O)[C@H](CCSC)NC(=O)[C@H](N)CC(C)C)C(N)=O [JM #180, d-LMRWSRK(Pal)-NH2] (H-[dL]MRWSRK(Palmitoyl)-NH2)",anti-HIV-1 activity (in words),[3],strongly increased anti-HIV-1 activity
same,remaining activity in plasma in vivo 4 hours post injection,[4]; 4 hours post injection,29%
same,remaining activity in plasma in vivo 8 hours post injection,[4]; 8 hours post injection,about 9%
B1,"IC50, HIV inhibition assay",[5],5 to 10 nM
same,fold more effective binding than EPI-X4,[6],> 2000 fold
same,fold more effective than WSC02,[6],~300 fold
ILRWSRK([Glu-Palmitoyl])-NH2 [JM#192],IC50,[7],4 nM
B2,fold more effective binding than EPI-X4,[6],> 2000 fold
same,fold more effective than WSC02,[6],~300 fold
ILRWSRK(Ac)LPCVS [JM#200],"IC50, HIV inhibition assay",[5],50 to 150 nM
same,IC50,[7],213 nM
